In publication PMC5608556, “Photo-affinity labelling and biochemical analyses identify the target of trypanocidal simplified natural product analogues” (PLoS Neglected Tropical Diseases, 2017):

Target: T1, FoF1-ATP synthase F1 β-subunit (GFP-PTP tagged) (Trypanosoma brucei brucei, UniProt Q9GPE9)
T1 construct: The endogenous expression produces tagged protein at physiological levels, allowing it to be trafficked and form complexes in the same way as untagged endogenously expressed protein; expressed in transfected cells; host or cells: procyclic-form T. brucei strain 29-13, stably transfected with BsmI-linearised pC-F1β-GFP-PTP (recombination into the endogenous gene)
T1 sequence (Q9GPE9 22-519): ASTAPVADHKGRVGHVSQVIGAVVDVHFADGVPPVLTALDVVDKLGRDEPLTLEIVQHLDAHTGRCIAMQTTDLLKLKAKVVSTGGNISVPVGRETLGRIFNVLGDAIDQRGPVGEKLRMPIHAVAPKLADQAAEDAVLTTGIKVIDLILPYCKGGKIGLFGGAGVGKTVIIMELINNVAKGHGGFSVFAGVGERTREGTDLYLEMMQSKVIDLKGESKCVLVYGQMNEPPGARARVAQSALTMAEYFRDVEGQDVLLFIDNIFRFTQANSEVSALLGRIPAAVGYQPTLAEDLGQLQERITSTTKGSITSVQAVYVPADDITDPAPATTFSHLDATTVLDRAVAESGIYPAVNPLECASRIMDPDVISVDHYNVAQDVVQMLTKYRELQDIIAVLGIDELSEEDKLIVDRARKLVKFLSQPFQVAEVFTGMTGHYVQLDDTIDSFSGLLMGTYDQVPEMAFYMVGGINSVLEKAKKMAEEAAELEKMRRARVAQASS
Test: In vivo photo-affinity labelling of GFP-PTP-tagged F1 β-subunit, Cy5.5 detection
Format: binding
Conditions: 50 μM, in vivo pulse-chase, UV 365 nm
Procedure: Fig 7 B-THP-Ts bind to C-terminal GFP-PTP tagged F1 α- and β- subunits. (A) Stably transfected PF T. brucei cells endogenously-expressing F1 α-GFP-PTP or F1 β-GFP-PTP were loaded with MitoTracker Red CMXros (red) and DAPI (blue) and imaged microscopically to determine localisation of GFP-PTP-tagged protein. […] (B) Following in vivo photo-affinity labelling with 50 μM compound 3 or compound 1 (negative control), GFP-PTP-tagged F1 α- and β-subunits were affinity purified and Cy5.5 clicked on. Proteins were separated by SDS-PAGE and a western blot was performed with mouse anti-GFP / anti-mouse-DyLight 800. […]
Pulse-chase in vivo photo-affinity labelling with bi-functional compound 3 (and lead compound 1 as negative control) was performed on cells from both cell lines expressing GFP-PTP-tagged F1 α- or β-subunits. Tagged subunits were immobilised on IgG-sepharose beads, purified, and Cy5.5 fluorescent reporter clicked on, and proteins were detected by western blotting (Fig 7B). […] In trypanosomatids (but not in other organisms) the native α-subunit is expressed as a 63 KDa protein which is then cleaved by an unknown protease to 20 KDa N-terminal and 43 KDa C-terminal domains, both of which remain associated with the FoF1-ATP synthase complex. […]

C#CCNC(=O)CCC[C@H]1CC2(C[C@@H](Cn3cc([C@@H]4CCC[C@H](CCCCOCc5ccccc5)O4)nn3)O1)N=N2 [Compound 3]
UV-conjugation (Cy5.5 labelling at 700 nm) to F1 β-GFP-PTP: can UV-conjugate
